Source: patent publication US20030194373A1, “Angiogenesis targeting molecules” (priority 1998, published 2003)
pKd: −log10 of the molar value. Blank lines part the entries; values can stand above or below the molecule they belong to.

How the values were obtained:
angiogenesis = conditions: compared with fumagillin; cited from earlier work
αvβ3 receptor = target: T1, αvβ3 receptor (Homo sapiens, UniProt P05106+P06756); assay: Cell adhesion assay with HUVECs and vitronectin; assay type: cell-based; conditions: HUVECs, FIG. 5
T1 construct: The HUVECs are known to express KDR, Flt-1 and αvβ3 receptors; host or cells: HUVEC
T1 sequence (P06756 31-889 limits assumed): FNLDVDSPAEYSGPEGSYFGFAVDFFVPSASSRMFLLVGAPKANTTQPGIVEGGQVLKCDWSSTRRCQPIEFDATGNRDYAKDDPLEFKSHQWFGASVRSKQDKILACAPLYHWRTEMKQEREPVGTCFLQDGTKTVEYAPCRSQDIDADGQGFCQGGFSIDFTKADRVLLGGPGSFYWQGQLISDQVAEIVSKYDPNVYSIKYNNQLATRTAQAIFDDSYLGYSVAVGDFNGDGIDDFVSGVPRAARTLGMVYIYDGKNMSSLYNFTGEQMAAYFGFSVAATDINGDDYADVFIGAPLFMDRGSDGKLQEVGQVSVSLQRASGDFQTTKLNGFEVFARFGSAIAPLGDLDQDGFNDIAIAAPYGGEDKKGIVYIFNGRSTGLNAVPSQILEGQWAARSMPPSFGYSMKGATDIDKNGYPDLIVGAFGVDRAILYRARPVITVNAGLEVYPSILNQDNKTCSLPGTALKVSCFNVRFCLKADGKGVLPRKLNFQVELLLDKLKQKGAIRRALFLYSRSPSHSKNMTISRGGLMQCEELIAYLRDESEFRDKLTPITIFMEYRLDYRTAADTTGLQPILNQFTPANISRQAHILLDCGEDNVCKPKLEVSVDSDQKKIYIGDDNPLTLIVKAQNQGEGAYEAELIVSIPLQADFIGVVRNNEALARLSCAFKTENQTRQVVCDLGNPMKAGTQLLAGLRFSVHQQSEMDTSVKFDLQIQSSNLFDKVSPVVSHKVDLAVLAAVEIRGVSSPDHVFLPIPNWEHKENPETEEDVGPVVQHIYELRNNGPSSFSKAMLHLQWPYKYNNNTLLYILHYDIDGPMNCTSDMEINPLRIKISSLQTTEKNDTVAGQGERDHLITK
T1 sequence (P06756 891-1048 partner limits assumed): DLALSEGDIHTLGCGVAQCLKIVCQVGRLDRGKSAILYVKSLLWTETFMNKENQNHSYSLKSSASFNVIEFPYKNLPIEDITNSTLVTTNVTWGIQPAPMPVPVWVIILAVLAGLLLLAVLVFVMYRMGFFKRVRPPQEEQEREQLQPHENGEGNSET
T1 sequence (P05106 27-788): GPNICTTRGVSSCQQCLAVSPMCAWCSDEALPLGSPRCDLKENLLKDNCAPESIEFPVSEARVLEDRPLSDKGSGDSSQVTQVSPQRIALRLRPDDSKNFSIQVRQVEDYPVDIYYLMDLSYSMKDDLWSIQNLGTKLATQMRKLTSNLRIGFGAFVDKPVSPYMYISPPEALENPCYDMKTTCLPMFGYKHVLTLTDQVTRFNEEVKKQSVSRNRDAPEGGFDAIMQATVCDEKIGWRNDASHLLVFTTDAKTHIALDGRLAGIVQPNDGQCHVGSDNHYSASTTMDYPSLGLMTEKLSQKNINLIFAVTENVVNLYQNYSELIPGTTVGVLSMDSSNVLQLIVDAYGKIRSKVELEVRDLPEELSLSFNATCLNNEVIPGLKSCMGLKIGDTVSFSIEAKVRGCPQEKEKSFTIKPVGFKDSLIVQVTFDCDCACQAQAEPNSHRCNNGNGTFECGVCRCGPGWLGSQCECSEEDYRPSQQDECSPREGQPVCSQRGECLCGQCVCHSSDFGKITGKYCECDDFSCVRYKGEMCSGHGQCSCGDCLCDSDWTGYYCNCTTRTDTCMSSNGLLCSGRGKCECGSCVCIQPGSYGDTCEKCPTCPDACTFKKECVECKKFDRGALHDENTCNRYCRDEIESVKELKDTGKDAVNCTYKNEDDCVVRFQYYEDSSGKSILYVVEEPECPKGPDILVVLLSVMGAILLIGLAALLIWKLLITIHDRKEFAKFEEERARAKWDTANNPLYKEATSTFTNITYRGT
Description: HUVECs (BioWhittaker) were cultured on gelatin-coated plates in MCDB 131 media supplemented with 15% fetal bovine serum (FBS), 4 ng/ml basic fibroblast growth factor, 10 ng/ml epidermal growth factor, and 10 U/ml heparin; cells were used in experiments at passages 2-10. The HUVECs are known to express KDR, Flt-1 and αvβ3 receptors.
HUVECs were harvested using 15 mM EDTA pH8.0, washed 3 times, and resuspended in serum-free media. 4×10^4 cells were preincubated either alone (control) or with test compound for 15 minutes at 37° C., then incubated in 96 well plates coated with known integrin ligand—eg. 5 μg/ml vitronectin (Sigma Aldrich Canada, Oakville, ON) coated 3 hours., 37° C., or RGD-ECM precoated plates (Chemicon International, Temecula, Calif.)—and blocked with 1% bovine serum albumin (BSA). Cells were allowed to adhere for 1-2 hours at 37° C. Unbound cells were removed by washing with phosphate-buffered saline (PBS) and the remaining adherent cells were fixed with 2% paraformaldehyde (30 minutes, room temperature). Adhesion was quantitated by cell staining with crystal violet followed by dye extraction with 10% acetic acid. The absorbance was measured at 595 nm in a microplate reader (Bio-Rad Laboratories, Richmond, Calif.). The sequence RGDS was used as a positive control, and RGES was used as a negative control. […]

Flt-1 = Flt-1 (Homo sapiens, UniProt P17948); conditions: Flt-1 receptor; read-out: binding affinity to VEGF (Flt-1); cited from earlier work
Chain of Flt-1 (P17948 27-1338, species assumed): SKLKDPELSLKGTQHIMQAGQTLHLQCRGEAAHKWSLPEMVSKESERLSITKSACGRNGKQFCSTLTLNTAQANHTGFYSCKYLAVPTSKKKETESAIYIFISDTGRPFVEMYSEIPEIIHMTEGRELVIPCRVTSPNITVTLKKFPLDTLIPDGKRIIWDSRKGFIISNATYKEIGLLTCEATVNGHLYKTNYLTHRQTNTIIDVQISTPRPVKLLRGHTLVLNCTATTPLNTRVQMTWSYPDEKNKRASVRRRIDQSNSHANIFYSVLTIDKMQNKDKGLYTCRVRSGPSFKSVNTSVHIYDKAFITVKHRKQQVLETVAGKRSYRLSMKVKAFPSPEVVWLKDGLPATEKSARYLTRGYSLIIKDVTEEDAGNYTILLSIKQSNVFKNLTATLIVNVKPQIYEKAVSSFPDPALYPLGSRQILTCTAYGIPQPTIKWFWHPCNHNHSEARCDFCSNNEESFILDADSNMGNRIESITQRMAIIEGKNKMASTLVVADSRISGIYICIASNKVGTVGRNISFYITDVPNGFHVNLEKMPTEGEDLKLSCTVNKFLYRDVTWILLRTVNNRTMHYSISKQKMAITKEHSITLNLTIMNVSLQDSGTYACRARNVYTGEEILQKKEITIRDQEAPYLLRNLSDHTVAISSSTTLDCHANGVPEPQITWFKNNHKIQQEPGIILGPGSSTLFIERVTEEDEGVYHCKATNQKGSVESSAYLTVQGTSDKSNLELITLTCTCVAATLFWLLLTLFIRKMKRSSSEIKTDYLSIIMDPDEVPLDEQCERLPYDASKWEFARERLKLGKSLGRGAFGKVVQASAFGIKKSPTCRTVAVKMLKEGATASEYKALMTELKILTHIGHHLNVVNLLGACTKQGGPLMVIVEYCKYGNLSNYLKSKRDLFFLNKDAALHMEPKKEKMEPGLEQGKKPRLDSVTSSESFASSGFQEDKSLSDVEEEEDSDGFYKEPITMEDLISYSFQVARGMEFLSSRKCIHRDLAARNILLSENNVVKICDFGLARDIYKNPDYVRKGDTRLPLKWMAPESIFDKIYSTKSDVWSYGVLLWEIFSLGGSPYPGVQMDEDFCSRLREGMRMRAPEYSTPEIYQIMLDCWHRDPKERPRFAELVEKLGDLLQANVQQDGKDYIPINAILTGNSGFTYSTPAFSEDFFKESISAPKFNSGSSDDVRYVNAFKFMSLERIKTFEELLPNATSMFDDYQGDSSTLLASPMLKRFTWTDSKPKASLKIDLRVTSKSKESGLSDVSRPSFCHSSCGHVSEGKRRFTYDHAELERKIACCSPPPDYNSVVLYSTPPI

KDR/Flk-1 = KDR/Flk-1 receptor; read-out: binding affinity to VEGF (KDR/Flk-1); cited from earlier work

Molecule: CO[C@@H]1C(=O)CC[C@]2(CO2)[C@@]1(O)[C@@]1(C)O[C@@H]1CC=C(C)C [Ovalicin]
potency as inhibitor of angiogenesis relative to fumagillin (angiogenesis): 50 times

effect on HUVEC binding to vitronectin / affinity for αvβ3 receptor (αvβ3 receptor; vitronectin coated plate): eliminated the binding
inhibition of binding (αvβ3 receptor; vitronectin): 100%
Molecule: R-G-D-S [RGDS, reference compound]

Molecule: CO[C@@H]1[C@H](OC(=O)NC(=O)CCl)CC[C@]2(CO2)[C@H]1[C@@]1(C)O[C@@H]1CC=C(C)C [TNP-470, O-(chloroacetylcarbamoyl)fumagillol]
potency as inhibitor of angiogenesis relative to fumagillin (angiogenesis): 50 times

Molecule: VEGF
pKd (Flt-1): 10.60
pKd (KDR/Flk-1): 9.90
